Patent US20090281106A1, “PROPHYLACTIC AND/OR THERAPEUTIC METHOD FOR RHEUMATOID ARTHRITIS” (Kowa Co., Ltd, priority 2005, published 2009)

Tested on: rat collagen-induced arthritis model
Experiment: rat collagen-induced arthritis model, edema suppression in both hindlimbs
Assay type: in vivo, female Lewis rat (LEW/Crj)
Details: oral, Drug A 3 mg/kg twice a day, Drug B 1.5 mg/kg once a day; for Relative index: edema volume of group / control group; for Edema volume for both hindlimbs: average ± standard error of 5 to 6 rats; for Decreasing rate: vs control group; for edema suppressive effect (in words): sole administration
Description: For the cases of combined administration of 2-benzyl-5-(4-chlorophenyl)-6-[4-(methylthio)phenyl]-2H-pyridazin-3-one (the product synthesized by the above-described method is used) (Drug A) and leflunomide (Drug B), and respective single drug administrations, the effect of edema suppression in both hindlimbs was determined by the following method (rat collagen-induced arthritis model) (FDA, CBER, CDER, CDRH: Guidance for industry—Clinical development programs for drugs, devices, and biological products for the treatment of rheumatoid arthritis (RA)—. (1999)). In addition, the test animal used was female Lewis rat (LEW/Crj) (obtained from Charles River Laboratories Japan, Inc.).
For each 8-week-old LEW/Crj rat, the volume of a portion extending from the ankle to the paw was measured for both hindlimbs (hereinafter, hindlimbs volume) by means of a plethysmometer for small animals (TK-101CMP, product of Unicom), and the total volume was taken as the hindlimbs volume upon initiation of test (hereinafter, Pre value). This Pre value was used as an index to divide the rats into groups by one-parameter-based block randomization, so that the values in the respective groups averaged out.
The collagen emulsion for sensitization that was used to induce arthritis in rats, was prepared by homogenizing a 0.3% Type II collagen solution (Collagen Research Center), Adjuvant Peptide (Peptide Institute, Inc.) and Adjuvant Incomplete Freund (DIFCO), using a Handy Micro Homogenizer (Microtec Nition, Co., Ltd.) under ice-cooling. The collagen emulsion thus prepared was intracutaneously administered at 10 sites in the back of each rat at a dose of 0.1 mL/site, to perform initial sensitization of the rat. Seven days after the initial sensitization, 0.12 mL of the same collagen emulsion was intracutaneously administered to the tail head of each rat, to perform booster sensitization.
Drug administration was conducted from the day after the initial sensitization through 29 days thereafter. The group for sole administration of Drug A was orally administered with the drug at 3 mg/kg, twice a day, in the morning (9:00 to 11:00) and in the evening (15:30 to 17:30). The group for sole administration of Drug B was orally administered with the drug at 1.5 mg/kg, once a day, in the afternoon (11:30 to 13:30). On the other hand, the group for combined administration of Drug A and Drug B was orally administered with Drug A at 3 mg/kg in the morning (9:00 to 11:00) and in the evening (15:30 to 17:30), and with Drug B at 1.5 mg/kg in the afternoon (11:30 to 13:30).
14, 18, 21, 26 and 31 days after the initial sensitization, the hindlimbs volume was measured again for each rat, and the difference between each of the values and the Pre value was determined to calculate the edema volume for both hindlimbs.
Tables 1 to 4 and FIGS. 1 to 4 represent the edema volume for both hindlimbs after 18, 21, 26 and 31 days from the initial sensitization, respectively, of the group for sole administration of Drug A, the group for sole administration of Drug B and the group for combined administration. The edema volume for both hindlimbs (mL) is expressed in the average value±standard error of 5 to 6 rats in each group. Furthermore, the decreasing rate is indicated as (average value of edema volume for both hindlimbs for the control group−the average value of edema volume for hindlimbs for each group)/(average value of edema volume for both hindlimbs for the control group)×100, while the relative index is indicated as (average value of edema volume for both hindlimbs for each group)/(average value of edema volume for both hindlimbs for the control group).

[1] = 18 days after initial sensitization
[2] = 21 days after initial sensitization
[3] = 26 days after initial sensitization
[4] = 31 days after initial sensitization

SMILES	Relative index [1]	Edema volume for both hindlimbs [1]	Decreasing rate [1]	Relative index [2]	Edema volume for both hindlimbs [2]	Decreasing rate [2]	Relative index [3]	Edema volume for both hindlimbs [3]	Decreasing rate [3]	Relative index [4]	Edema volume for both hindlimbs [4]	Decreasing rate [4]	edema suppressive effect (in words)
Cc1oncc1C(=O)Nc1ccc(C(F)(F)F)cc1 [Drug B, N-(4-trifluoromethylphenyl)-5-methylisoxazole-4-carboxamide]	0.28	0.57 ± 0.32 mL	72%	0.34	0.58 ± 0.31 mL	66%	0.49	0.78 ± 0.28 mL	51%	0.57	0.81 ± 0.26 mL	43%	decrease in the edema suppressive effect in the stage after 18 days from the initial sensitization
CSc1ccc(-c2nn(Cc3ccccc3)c(=O)cc2-c2ccc(Cl)cc2)cc1 [Drug A, 2-benzyl-5-(4-chlorophenyl)-6-[4-(methylthio)phenyl]-2H-pyridazin-3-one]	0.89	1.79 ± 0.17 mL	11%	0.90	1.54 ± 0.17 mL	10%	0.99	1.58 ± 0.27 mL	1%	1.02	1.44 ± 0.26 mL	−2%	did not show a potent edema suppressive effect
